Results taken from ChEMBL document CHEMBL1129279, “Structure-antigastrin activity relationships of new spiroglumide amido acid derivatives” (J Med Chem, 1996).

Key:
[1] = target: Cholecystokinin receptor (Homo sapiens) (UniProt P32239+P32238); experiment: Concentration required to inhibit CCK-A receptor/ Concentration required to inhibit CCK-B receptor; type: protein assay
[2] = target: Gastrin/cholecystokinin type B receptor (Cavia porcellus); experiment: Inhibition of binding of [3H]N-Me-N-Leu-CCK-8 to cholecystokinin type B receptor in guinea pig brain cortex
[3] = target: T1, Cholecystokinin receptor type A (Rattus norvegicus, UniProt P30551); experiment: Inhibition of [125I]CCK-8 binding to Cholecystokinin type A receptor in rat pancreas
T1 sequence (P30551 whole entry): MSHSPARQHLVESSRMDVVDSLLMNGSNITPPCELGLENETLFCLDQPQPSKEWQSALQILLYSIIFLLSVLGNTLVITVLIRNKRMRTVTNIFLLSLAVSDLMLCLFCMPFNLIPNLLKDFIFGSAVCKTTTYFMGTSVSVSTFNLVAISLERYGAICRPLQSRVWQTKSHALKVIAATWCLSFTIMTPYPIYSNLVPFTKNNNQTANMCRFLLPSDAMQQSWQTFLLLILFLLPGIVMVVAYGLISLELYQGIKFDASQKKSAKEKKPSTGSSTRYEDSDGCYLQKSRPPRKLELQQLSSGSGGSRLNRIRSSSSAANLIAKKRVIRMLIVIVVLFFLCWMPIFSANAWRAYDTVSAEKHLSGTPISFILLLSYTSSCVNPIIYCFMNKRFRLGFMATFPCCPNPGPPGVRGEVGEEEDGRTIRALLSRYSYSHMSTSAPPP

Chain of Cholecystokinin receptor (Homo sapiens) (P32238 whole entry, looked up): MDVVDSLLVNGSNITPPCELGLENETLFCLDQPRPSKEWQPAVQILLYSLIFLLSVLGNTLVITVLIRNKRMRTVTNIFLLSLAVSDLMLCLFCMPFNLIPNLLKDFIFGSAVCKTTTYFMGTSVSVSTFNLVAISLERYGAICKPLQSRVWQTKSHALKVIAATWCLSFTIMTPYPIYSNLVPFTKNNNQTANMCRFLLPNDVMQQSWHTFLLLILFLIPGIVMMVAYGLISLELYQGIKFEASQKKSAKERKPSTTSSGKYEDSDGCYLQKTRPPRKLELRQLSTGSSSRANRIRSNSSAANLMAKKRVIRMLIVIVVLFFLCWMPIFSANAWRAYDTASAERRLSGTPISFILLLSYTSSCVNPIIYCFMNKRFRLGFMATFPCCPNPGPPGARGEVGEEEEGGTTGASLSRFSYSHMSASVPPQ
Chain of Cholecystokinin receptor (Homo sapiens) (P32239 whole entry, looked up): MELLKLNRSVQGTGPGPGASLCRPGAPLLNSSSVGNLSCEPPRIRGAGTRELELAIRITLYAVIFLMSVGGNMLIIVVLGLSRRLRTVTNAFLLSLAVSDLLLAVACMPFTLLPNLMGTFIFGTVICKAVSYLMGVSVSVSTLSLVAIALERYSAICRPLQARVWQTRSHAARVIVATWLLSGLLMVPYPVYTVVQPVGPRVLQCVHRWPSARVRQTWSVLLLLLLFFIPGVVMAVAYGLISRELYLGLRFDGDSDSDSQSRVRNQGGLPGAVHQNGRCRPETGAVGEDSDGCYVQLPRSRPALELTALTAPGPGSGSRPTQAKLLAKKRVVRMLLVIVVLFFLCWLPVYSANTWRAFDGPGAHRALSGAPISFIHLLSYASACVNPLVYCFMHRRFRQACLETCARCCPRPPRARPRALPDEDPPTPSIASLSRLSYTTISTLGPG

Row | SMILES | Ratio [1] | IC50 (Oryctolagus cuniculus) | IC50 [3] [µM] | further results
1 | O=C(O)CC[C@@H](NC(=O)CCC(NC(=O)c1cc(Cl)cc(Cl)c1)C(=O)N1CCC2(CCCC2)CC1)C(=O)NCCC12C[C@H]3C[C@@H](C1)C[C@@H](C2)C3 (stereo partly drawn) | – | Not Active | – | –
2 | O=C(O)CC[C@@H](NC(=O)CCC(NC(=O)c1cc(Cl)cc(Cl)c1)C(=O)N1CCC2(CCCC2)CC1)C(=O)NC1[C@H]2C[C@@H]3C[C@@H](C[C@H]1C3)C2 (stereo partly drawn) | – | Not Active | – | –
3 | O=C(O)CC[C@H](NC(=O)CCC(NC(=O)c1cc(Cl)cc(Cl)c1)C(=O)N1CCC2(CCCC2)CC1)C(=O)Nc1cccc2ccccc12 (stereo partly drawn) | 369 | – | 7.38 | –

Now from value to compound, other results behind:

Row | Ratio [1] | IC50 (Oryctolagus cuniculus) | IC50 [3] [µM] | SMILES | further results
4 | 9.6 | – | – | O=C(O)CC[C@@H](NC(=O)c1cc(Cl)cc(Cl)c1)C(=O)N1CCC2(CCCC2)CC1 [SPIROGLUMIDE] | IC50 [2]: 1400 nM
5 | – | Not Active | – | O=C(CCC(NC(=O)c1cc(Cl)cc(Cl)c1)C(=O)N1CCC2(CCCC2)CC1)N[C@@H](Cc1ccccc1)C(=O)O (stereo partly drawn) | –
6 | – | – | 3.4 | CN(C(=O)CCC(NC(=O)c1cc(Cl)cc(Cl)c1)C(=O)N1CCC2(CCCC2)CC1)[C@H](Cc1c[nH]c2ccccc12)C(=O)O (stereo partly drawn) | –
